Values of other authors as cited in US8028928B2, “Spreader apparatus for sand based formulations” (priority 2007, dated 2011).

Test system: S. homoeocarpa
Settings: bent grass blend Cato:Crenshaw (50:50); high disease pressure

Structure (SMILES): CSC(=O)c1cccc2nnsc12 [ASM, acibenzolar-5-methyl]
- Reduction of number of S. homoeocarpa infection centers: 38%
